Target: NR2A-containing NMDA receptor (NR2A subunit) (Rattus norvegicus, UniProt Q00959)
Format: cell-based

Sequence of NR2A-containing NMDA receptor (NR2A subunit) (Q00959 23-1464, other chains not shown): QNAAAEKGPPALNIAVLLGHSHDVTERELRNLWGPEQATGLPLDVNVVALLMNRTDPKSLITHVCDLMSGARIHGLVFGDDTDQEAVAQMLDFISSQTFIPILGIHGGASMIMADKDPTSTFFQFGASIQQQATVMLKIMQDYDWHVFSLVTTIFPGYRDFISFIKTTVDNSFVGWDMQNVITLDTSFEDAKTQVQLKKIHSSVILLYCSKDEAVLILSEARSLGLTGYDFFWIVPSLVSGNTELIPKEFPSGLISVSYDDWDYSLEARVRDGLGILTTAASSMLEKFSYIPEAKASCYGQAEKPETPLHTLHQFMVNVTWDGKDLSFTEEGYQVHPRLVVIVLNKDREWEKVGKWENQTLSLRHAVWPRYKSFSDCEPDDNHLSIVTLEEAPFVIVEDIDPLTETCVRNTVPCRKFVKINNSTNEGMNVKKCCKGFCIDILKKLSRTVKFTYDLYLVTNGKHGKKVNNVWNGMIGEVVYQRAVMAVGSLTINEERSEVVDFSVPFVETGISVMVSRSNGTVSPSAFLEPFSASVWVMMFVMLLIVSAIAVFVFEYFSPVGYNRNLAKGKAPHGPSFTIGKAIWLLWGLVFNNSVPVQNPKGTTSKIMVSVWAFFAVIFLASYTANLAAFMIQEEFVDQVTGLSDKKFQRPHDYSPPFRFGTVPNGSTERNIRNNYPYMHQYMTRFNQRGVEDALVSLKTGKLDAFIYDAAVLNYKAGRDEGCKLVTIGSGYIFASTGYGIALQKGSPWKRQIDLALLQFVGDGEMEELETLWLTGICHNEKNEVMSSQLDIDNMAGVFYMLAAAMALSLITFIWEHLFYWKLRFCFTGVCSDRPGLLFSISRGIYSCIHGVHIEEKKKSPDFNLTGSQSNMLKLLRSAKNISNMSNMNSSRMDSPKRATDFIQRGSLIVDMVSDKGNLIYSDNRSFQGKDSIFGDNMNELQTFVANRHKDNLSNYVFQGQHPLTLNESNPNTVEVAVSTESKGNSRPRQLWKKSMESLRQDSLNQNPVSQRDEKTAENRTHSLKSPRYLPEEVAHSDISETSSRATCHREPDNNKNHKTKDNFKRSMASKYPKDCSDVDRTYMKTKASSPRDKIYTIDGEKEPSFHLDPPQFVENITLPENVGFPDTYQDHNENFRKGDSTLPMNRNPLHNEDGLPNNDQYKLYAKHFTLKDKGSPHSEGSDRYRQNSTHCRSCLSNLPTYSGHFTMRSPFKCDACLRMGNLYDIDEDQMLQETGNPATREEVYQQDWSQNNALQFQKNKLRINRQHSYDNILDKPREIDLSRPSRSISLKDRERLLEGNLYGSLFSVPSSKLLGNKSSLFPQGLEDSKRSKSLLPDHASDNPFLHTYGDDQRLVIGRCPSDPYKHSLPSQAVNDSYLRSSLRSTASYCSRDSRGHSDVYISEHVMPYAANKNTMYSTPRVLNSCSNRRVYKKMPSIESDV

An IC50 of 0.13 ± 0.04 µM was found for C[C@H](NC(c1cccc2[nH]c(=O)c(=O)[nH]c12)P(=O)(O)O)c1ccc(Br)cc1 (stereo partly drawn) [PEAQX, ({[(1S)-1-(4-bromophenyl)ethyl]amino}-(2,3-dioxo-1,4-dihydroquinoxalin-5-yl)methyl)phosphonic acid] in this work.

From article PMC3427421 (2012)
